Measured values reported in the supplement of paper PMC4862054.

How the values were obtained:
Experiment in all cases: normalised response (% of control), CellTiter-Glo; higher = more viable cells (100 = DMSO, 0 = benzethonium chloride kill control)
Conditions in all cases: incubation time: 72 h
HCC1937 = system: HCC1937
Procedure: (§1)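 DSRT, 72 h incubation, CellTox Green / CellTiter-Glo readout. Signal is normalised to DMSO and benzethonium chloride controls. Value is the normalised response at the highest dose.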

HCC1599 = system: HCC1599
Procedure: as §1

Hs578T = system: Hs578T
Procedure: as §1

DU-4475 = system: DU-4475
Procedure: as §1

MDA-MB-453 = system: MDA-MB-453
Procedure: as §1

SK-BR-3 = system: SK-BR-3
Procedure: as §1

HDQ-P1 = system: HDQ-P1
Procedure: as §1

MFM-223 = system: MFM-223
Procedure: as §1

HCC1143 = system: HCC1143
Procedure: as §1

CAL-120 = system: CAL-120
Procedure: as §1

CAL-148 = system: CAL-148
Procedure: as §1

CAL-51 = system: CAL-51
Procedure: as §1

Row | Compound | normalised response (HCC1937) [%] | normalised response (HCC1599) [%] | normalised response (Hs578T) [%] | normalised response (DU-4475) [%] | normalised response (MDA-MB-453) [%] | normalised response (SK-BR-3) [%] | normalised response (HDQ-P1) [%] | normalised response (MFM-223) [%] | normalised response (HCC1143) [%] | normalised response (CAL-120) [%] | normalised response (CAL-148) [%] | normalised response (CAL-51) [%]
1 | CC(=O)O[C@@]12CO[C@@H]1C[C@H](O)[C@@]1(C)C(=O)[C@H](O)C3=C(C)[C@@H](OC(=O)[C@H](O)[C@@H](NC(=O)OC(C)(C)C)c4ccccc4)C[C@@](O)([C@@H](OC(=O)c4ccccc4)[C@H]21)C3(C)C [Docetaxel] (1000 nM) | 73.8 | 29.6 | 13.6 | 44 | 44.4 | 10.7 | 64.2 | 48.9 | 38.3 | 55.3 | 45.5 | 32.9
2 | Cn1cnc2c(F)c(Nc3ccc(Br)cc3Cl)c(C(=O)NOCCO)cc21 [Selumetinib] (10000 nM) | 76.3 | 72.7 | 76.4 | 0.53 | 93.8 | 92 | 56.3 | 67.9 | 76.6 | 66.8 | 76.1 | 106
3 | Cn1cc(C2=Nc3cc(NC(=O)C(N)C4CCCCC4)cc4c3C2=CNNC4=O)cn1 (stereo not drawn) (10000 nM) | 21.2 | 10.9 | 26.6 | 48.4 | 46.6 | 8.5 | 48.6 | 50.4 | 14.7 | 42.8 | 53.1 | 25.2
4 | Oc1ncnc2[nH]ncc12 [Allopurinol] (10000 nM) | 102 | 102 | 102 | 99.7 | 111 | 114 | 95.1 | 103 | 104 | 99.1 | 106 | 131
5 | O=C1CN2Cc3c(ccc(Cl)c3Cl)N=C2N1 [Anagrelide] (10000 nM) | 97.9 | 97 | 80.5 | 98.9 | 100 | 102 | 90.9 | 99.6 | 93 | 96.5 | 96.4 | 88
6 | CC1=C2C[C@H]3[C@@H](CC=C4C[C@@H](O)CC[C@@]43C)[C@@H]2CC[C@]12O[C@@H]1C[C@H](C)CN[C@H]1[C@H]2C [Cyclopamine] (10000 nM) | 97.1 | 107 | 101 | 105 | 103 | 102 | 86 | 101 | 93.2 | 103 | 110 | 106
7 | COc1cc2c(cc1O)CC[C@@H]1[C@@H]2CC[C@]2(C)[C@@H](O)CC[C@@H]12 [2-methoxyestradiol] (10000 nM) | 68.5 | 31.6 | 25.4 | 42.2 | 59.7 | 17.1 | 73.7 | 54.4 | 49.3 | 62.6 | 39.8 | 31.1
8 | Nc1nc2[nH]cnc2c(=S)[nH]1 [Thioguanine] (10000 nM) | 35.8 | 28.2 | 33.2 | 24.1 | 79 | 62.1 | 31.8 | 72.9 | 66.7 | 37 | 68.2 | 28.6
9 | O=NN(CCCl)C(=O)NCCCl [Carmustine] (10000 nM) | 99.6 | 104 | 101 | 96.5 | 87.3 | 95.2 | 96.1 | 94.4 | 106 | 96.2 | 100 | 116
10 | CC[C@@H]1C(=O)OC[C@@H]1Cc1cncn1C [Pilocarpine] (40000 nM) | 96.7 | 104 | 99 | 95.7 | 92.7 | 102 | 91.9 | 97.6 | 89.6 | 91.2 | 88.6 | 134
11 | Nc1ncn([C@@H]2O[C@H](CO)[C@@H](O)[C@H]2O)c(=O)n1 [Azacitidine] (10000 nM) | 69.3 | 76.1 | 58.9 | 60.7 | 102 | 92.4 | 63 | 53.8 | 75 | 61.6 | 87.7 | 91.2
12 | CC(C)(C)c1cnc(CSc2cnc(NC(=O)C3CCNCC3)s2)o1 [SNS-032] (10000 nM) | 38.6 | 7.5 | 8.34 | 10.3 | 56.4 | 4.26 | 24.3 | 32 | 15.1 | 43.3 | 77.1 | 16.7
13 | Cc1sc2c(c1C)C(c1ccc(Cl)cc1)=N[C@@H](CC(=O)OC(C)(C)C)c1nnc(C)n1-2 [(+)JQ1] (10000 nM) | 68.2 | 85.5 | 41.3 | 20.4 | 32.6 | 53.2 | 71.1 | 45.1 | 58.3 | 78 | 49.1 | 47.5
14 | CC1(C)CNc2cc(NC(=O)c3cccnc3NCc3ccncc3)ccc21 [Motesanib] (10000 nM) | 97.8 | 107 | 91.8 | 98.6 | 91.6 | 86.3 | 92.5 | 88.1 | 94.8 | 103 | 86.9 | 122
